Experimental data from patent US20130029942A1, “COMPOUNDS AND THERAPEUTICAL USES THEREOF” (Myrexis, Inc., priority 2003, published 2013).
Read-outs that look alike come from different tables or passages of the source.

How the values were obtained:
[1] = biological target: tyrosine kinase of Epidermal Growth Factor Receptor (Homo sapiens, UniProt P00533); conditions: Bridges et al. 1996; read-out: IC50 EGFR tyrosine kinase; cited from earlier work
[2] = test system: NCI-ADR/Res cells; experiment: Cytotoxicity (ATP-lite cell viability), MDR-1 over-expressing NCI-ADR/Res; format: cell-based; conditions: Homo sapiens, 72 hours
Protocol: (§1) Cytotoxicity of compounds in multidrug resistant cells can be determined by administering compounds to cell lines that overexpress the multidrug resistance pump MDR-1 and determining the viability of the cell lines.
(§2) NCI-ADR/Res, MCF-7, P388, and P388/ADR cell lines were obtained from American Type Culture Collection (Manassas, Va.) and maintained in RPMI-1640 media supplemented with 10% FCS, 10 units/ml penicillin and streptomycin, 2 mM Glutamax and 1 mM sodium pyruvate (Invitrogen Corporation, Carlsbad, Calif.). For compound testing, cells were plated in 96 well dishes at a concentration of 1.5×10^4 cells/well. Cells were allowed to adhere to the plate overnight and then incubated with compounds at final concentrations ranging from 0.13 nM to 10 uM for 72 hours. Cell viability was then assessed using the ATP-lite reagent (Perkin Elmer, Foster City, Calif.). Plates were read on a Wallac Topcount luminescence reader (Perkin Elmer, Foster City, Calif.) and the results graphed in Prism software (Graphpad Software, Inc., San Diego, Calif.). Non-linear regression with variable slope analysis was performed to obtain IC50 concentration values.
(§3) Example 1 compound, docetaxel, and vinblastine were tested for their ability to kill multidrug resistant cells by administering the compounds to NCI-ADR/Res, MCF-7 cells, P388 and P388/ADR cells and determining the viability of the cells.

[3] = test system: P388 cells; experiment: Cytotoxicity (ATP-lite cell viability), P388; format: cell-based, murine; conditions: Mus musculus; P388, 72 hours
Protocol: as §1, §2, §3

[4] = test system: MCF-7 cells; experiment: Cytotoxicity (ATP-lite cell viability), MCF-7; format: cell-based; conditions: Homo sapiens, MCF7; MCF-7, 72 hours
Protocol: as §1, §2, §3

[5] = test system: P388/ADR cells; experiment: Cytotoxicity (ATP-lite cell viability), MDR-1 over-expressing P388/ADR; format: cell-based; conditions: Mus musculus, 72 hours
Protocol: as §1, §2, §3

[6] = biological target: T1, Human Type II Topoisomerase (p170 Form) (Homo sapiens, UniProt P11388); experiment: Photo-crosslinking of radiolabeled compound to Topoisomerase II (SDS gel, autoradiography); format: binding; conditions: 50 nM, 60 minutes at room temperature, UV 254 nm, FIG. 3
T1 construct: purchased TopoGEN, Inc., Columbus, Ohio
Protocol: 30 Units (15 ul) Human Type II Topoisomerase (p170 Form) (from TopoGEN, Inc., Columbus, Ohio) was incubated with 50 nM radiolabeled Example 102 compound for 60 minutes at room temperature.
Radiolabeled Example 102 compound stock is 16.67 uM, 60 Ci/mmol, 1 mCi/ml American Radiolabeled Chemicals, Inc., St. Louis, Mo. Samples were either UV irradiated (+) with a short wavelength UV Source (254 nm) for 10 minutes at a distance of 3.5 cm or not irradiated (−). 8 ul of 5× sample buffer (150 mM Tris, pH 6.8, 50% glycerol, 1% SDS, 50 mM dithiothreitol, 62 mg/ml bromophenol blue) was added to the samples and boiled for 5 minutes. The entire sample was then loaded onto a 6% Tris-Glycine SDS-gel (10 well, 1.5 mm thickness) (Invitrogen, Carlsbad, Calif.). The gel was stained with 1% Coomassie Brilliant Blue in 40% methanol, 7.5% acetic acid for 2 hours then de-stained in several changes of de-stainer (40% methanol, 7.5% acetic acid). The gel was then incubated in Amplify (Amersham, Piscataway, N.J.) for 30 minutes at room temperature and then dried down on Whatman filter paper at 80° C. for 2 hours on a gel dryer. The dried gel was put on Hyperfilm (Amersham) in a film cassette and placed at −80° C. for 5-7 days.

[7] = biological target: T2, topoisomerase I (Homo sapiens, UniProt P11387); experiment: Topoisomerase I activity assay (relaxation of supercoiled DNA, gel); conditions: Form I DNA, varying concentrations, FIG. 2
T2 sequence (P11387 1-765): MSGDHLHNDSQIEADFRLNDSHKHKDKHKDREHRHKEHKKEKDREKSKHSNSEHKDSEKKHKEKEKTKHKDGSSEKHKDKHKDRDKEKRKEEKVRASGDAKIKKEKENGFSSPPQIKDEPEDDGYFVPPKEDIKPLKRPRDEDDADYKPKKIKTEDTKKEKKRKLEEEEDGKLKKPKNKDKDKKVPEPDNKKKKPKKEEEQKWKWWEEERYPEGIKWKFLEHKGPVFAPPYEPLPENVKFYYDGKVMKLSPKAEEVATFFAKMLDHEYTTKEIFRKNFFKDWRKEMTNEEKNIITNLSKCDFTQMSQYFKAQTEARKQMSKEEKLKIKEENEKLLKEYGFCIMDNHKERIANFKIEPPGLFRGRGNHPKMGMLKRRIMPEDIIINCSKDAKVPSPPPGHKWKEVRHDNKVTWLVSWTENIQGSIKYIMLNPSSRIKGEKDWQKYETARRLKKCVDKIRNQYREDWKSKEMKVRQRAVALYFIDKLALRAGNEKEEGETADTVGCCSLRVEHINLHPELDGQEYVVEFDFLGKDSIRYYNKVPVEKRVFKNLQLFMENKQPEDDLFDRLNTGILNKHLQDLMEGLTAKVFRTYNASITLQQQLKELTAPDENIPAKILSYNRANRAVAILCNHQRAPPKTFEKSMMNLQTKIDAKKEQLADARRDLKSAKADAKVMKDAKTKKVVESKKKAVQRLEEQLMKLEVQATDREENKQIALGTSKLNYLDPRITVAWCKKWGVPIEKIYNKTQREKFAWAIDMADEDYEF

[8] = test system: SW620 cells; experiment: Inhibition of cell proliferation (GI50), CellTiter-Glo, SW620; format: cell-based; conditions: Homo sapiens
Protocol: (§4) T-47D, DLD, H1299, MX-1 and SW620 cells were grown and harvested as in Example 262. […] An aliquot of 45 μL of cells was added to a well of a 96-well microtiter plate containing 5 μL of a 10% DMSO in RPMI-1640 media solution without compound as the control sample for maximal cell proliferation (Lmax). The samples were mixed by agitation and then incubated at 37° C. for 48 h in a 5% CO2—95% humidity incubator. After incubation, the samples were removed from the incubator and 25 μL of CellTiter-Glo™ reagent (Promega) was added. The samples were mixed by agitation and incubated at room temeperature for 10-15 min. Plates were then read using a luminescent plate reader (Model SPECTRAfluor Plus, Tecan) to give Ltest values.
(§5) The samples were mixed by agitation and then incubated at 37° C. for 0.5 h in a 5% CO2—95% humidity incubator. After incubation, the samples were removed from the incubator and 25 μL of CellTiter-Glo™ reagent (Promega) was added. The samples were mixed by agitation and incubated at 37° C. for 10-15 min at room temperature in a 5% CO2—95% humidity incubator. Fluorescence was read as above, (LStart) defining luminescence for initial cell number used as baseline in GI50 determinations.

[9] = biological target: Topoisomerase II (Homo sapiens, UniProt P11388); experiment: Topoisomerase II activity assay (relaxation of supercoiled DNA, gel); conditions: 100 μM, pRYG DNA, FIG. 1
[10] = test system: T-47D cells; experiment: Inhibition of cell proliferation (GI50), CellTiter-Glo, T-47D; format: cell-based; conditions: Homo sapiens, T47D, 48 h
Protocol: as §4, §5

[11] = test system: T-47D cells; experiment: Caspase cascade activation / induction of apoptosis in T-47D cells (fluorogenic N-(Ac-DEVD)-N'-ethoxycarbonyl-R110 substrate); format: cell-based, human; conditions: Homo sapiens, T47D
[12] = test system: MX-1 cells; experiment: Inhibition of cell proliferation (GI50), CellTiter-Glo, MX-1; format: cell-based; conditions: Homo sapiens
Protocol: as §4, §5

[13] = test system: H1299 cells; experiment: Inhibition of cell proliferation (GI50), CellTiter-Glo, H1299; format: cell-based; conditions: Homo sapiens, NCI-H1299, 48 h
Protocol: as §4, §5

[14] = test system: DLD cells; experiment: Inhibition of cell proliferation (GI50), CellTiter-Glo, DLD; format: cell-based; conditions: Homo sapiens, 48 h
Protocol: as §4, §5

[15] = biological target: tubulin (Bos taurus, UniProt P81947+Q6B856); experiment: Inhibition of tubulin polymerization (DAPI fluorescence); format: biochemical; conditions: MAP-rich tubulin, 30 minutes at 37° C.
Protocol: Lyophilized tubulin (Cytoskeleton #ML113, 1 mg, MAP-rich) was assayed for the effect of the test compound on tubulin polymerization as measured by change in fluorescence for 4′,6-diamidino-2-phenylindole (DAPI) (Barron, D. M. et al. Analytical Biochem., 2003, 315, 49-56). 1 μl of serial dilutions of each test compound (from 100×DMSO stock) was added in 96 well plate format and preincubated for 30 minutes with 94 ul of the non-GTP supplemented tubulin supernatant. 5 μl of DAPI/GTP solution was added to initiate polymerization and incubated for 30 minutes at 37° C. Fluorescence was read with excitation 350 nm, emission wavelength 485 nm on a Tecan Spectraflour Plus. Polymerized tubulin (DMSO and with the tubulin stabilizer Taxol® (paclitaxel)) gives a higher DAPI fluorescence as compared to non-polymerized tubulin (vinblastine and colchicine used to determine baseline).

[16] = SW-620, SW620, 48 h, read-out: GI50
[17] = T-47D, 24 hr, read-out: T-47D (24 hr) EC50
[18] = Table III, time not given, repeats 24 hr or 48 hr T-47D values of Table I, read-out: Caspase activation (EC50 nM)
[19] = MX1, MX-1, 48 h, read-out: GI50

Sequence of tubulin (P81947 whole entry): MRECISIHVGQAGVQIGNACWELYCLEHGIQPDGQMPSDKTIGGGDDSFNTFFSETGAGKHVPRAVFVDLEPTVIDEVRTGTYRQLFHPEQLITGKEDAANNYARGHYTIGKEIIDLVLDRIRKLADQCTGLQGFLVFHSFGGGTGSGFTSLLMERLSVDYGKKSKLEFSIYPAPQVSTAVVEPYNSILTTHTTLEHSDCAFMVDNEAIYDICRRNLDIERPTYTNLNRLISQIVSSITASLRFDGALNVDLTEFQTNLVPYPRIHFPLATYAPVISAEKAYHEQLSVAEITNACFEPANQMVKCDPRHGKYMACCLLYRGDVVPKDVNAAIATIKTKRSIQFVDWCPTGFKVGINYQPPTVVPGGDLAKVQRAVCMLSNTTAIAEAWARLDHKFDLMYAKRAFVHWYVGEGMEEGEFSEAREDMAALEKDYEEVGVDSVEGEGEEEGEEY
Sequence of tubulin (Q6B856 whole entry): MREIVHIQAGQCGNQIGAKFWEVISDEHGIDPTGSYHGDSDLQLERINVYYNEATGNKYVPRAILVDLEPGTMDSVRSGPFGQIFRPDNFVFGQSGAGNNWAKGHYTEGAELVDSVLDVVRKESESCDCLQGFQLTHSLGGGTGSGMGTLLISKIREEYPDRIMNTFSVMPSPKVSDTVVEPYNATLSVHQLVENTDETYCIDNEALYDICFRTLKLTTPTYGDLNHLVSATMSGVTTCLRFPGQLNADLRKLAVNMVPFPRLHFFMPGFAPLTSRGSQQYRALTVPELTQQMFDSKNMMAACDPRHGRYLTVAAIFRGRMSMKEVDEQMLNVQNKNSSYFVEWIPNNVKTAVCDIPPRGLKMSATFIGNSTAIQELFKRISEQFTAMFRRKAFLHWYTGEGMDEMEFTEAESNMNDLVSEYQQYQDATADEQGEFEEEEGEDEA
Sequence of tyrosine kinase of Epidermal Growth Factor Receptor (P00533 25-1210): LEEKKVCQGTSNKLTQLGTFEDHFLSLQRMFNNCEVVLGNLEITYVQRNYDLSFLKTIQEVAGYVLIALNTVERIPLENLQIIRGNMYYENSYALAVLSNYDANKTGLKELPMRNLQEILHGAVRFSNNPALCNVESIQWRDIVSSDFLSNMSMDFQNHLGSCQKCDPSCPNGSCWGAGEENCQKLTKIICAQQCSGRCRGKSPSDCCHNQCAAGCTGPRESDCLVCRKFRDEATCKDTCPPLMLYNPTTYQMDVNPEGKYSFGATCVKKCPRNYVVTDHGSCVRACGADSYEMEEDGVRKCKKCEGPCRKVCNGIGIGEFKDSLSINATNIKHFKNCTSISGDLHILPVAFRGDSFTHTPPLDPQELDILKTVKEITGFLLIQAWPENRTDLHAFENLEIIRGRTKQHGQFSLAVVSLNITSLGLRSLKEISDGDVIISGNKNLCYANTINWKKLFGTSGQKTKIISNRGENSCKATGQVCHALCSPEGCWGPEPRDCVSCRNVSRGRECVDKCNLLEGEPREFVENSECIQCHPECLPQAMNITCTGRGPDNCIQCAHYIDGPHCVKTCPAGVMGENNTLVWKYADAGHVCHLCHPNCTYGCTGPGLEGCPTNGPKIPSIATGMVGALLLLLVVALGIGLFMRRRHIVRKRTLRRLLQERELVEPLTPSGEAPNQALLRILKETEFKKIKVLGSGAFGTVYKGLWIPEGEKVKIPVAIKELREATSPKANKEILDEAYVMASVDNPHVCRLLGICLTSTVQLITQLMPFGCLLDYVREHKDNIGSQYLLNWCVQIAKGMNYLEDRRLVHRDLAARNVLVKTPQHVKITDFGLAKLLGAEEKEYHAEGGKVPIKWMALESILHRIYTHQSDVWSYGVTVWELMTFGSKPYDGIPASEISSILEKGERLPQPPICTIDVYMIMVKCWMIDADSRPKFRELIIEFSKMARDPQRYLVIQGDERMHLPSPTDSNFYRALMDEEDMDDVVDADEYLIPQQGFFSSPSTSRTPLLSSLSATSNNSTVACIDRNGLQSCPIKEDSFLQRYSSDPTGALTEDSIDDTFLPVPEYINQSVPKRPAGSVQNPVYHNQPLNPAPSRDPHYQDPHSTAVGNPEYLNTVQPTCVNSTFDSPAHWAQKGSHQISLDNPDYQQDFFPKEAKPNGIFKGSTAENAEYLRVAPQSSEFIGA
Sequence of Topoisomerase II (P11388 whole entry): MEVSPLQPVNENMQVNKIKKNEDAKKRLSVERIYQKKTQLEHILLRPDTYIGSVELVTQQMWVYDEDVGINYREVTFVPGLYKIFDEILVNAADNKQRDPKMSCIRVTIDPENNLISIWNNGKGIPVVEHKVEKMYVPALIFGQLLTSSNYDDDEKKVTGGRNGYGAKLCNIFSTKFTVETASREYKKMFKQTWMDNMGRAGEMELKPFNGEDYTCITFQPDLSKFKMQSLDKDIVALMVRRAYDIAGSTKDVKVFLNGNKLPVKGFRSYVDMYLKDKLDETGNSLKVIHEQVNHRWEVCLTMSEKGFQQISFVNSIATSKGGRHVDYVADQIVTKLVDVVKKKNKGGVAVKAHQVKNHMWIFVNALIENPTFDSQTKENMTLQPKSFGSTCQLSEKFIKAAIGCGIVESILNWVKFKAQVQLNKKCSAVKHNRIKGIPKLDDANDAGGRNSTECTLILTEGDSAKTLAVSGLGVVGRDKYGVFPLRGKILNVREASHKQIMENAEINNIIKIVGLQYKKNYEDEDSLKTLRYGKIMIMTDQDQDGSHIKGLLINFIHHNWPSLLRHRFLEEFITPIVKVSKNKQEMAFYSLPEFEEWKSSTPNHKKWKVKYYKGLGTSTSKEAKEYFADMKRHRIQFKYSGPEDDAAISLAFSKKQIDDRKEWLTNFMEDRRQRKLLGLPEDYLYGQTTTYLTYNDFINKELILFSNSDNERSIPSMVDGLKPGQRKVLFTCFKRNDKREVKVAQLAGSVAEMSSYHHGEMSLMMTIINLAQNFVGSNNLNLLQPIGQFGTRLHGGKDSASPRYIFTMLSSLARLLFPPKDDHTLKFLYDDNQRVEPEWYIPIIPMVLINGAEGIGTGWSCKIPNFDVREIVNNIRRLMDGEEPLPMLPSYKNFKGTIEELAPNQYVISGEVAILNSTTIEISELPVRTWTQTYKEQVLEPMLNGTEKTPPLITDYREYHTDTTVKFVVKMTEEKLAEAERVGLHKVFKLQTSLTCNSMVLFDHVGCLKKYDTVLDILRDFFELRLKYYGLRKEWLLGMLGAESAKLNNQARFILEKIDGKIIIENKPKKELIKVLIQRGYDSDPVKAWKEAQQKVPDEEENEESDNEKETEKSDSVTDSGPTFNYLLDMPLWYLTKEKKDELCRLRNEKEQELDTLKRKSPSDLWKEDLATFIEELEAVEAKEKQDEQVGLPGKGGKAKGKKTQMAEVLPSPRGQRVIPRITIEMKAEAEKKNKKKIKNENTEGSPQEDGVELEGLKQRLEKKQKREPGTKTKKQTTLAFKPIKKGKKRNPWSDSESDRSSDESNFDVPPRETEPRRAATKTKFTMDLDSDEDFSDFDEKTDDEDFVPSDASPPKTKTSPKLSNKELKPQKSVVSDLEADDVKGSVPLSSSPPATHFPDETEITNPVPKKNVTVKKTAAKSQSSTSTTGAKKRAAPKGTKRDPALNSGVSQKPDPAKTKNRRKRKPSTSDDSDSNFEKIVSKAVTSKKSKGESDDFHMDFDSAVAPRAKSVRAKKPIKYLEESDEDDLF
T1 sequence (P11388 whole entry): as above

Compound: COc1cc2nc(N)nc(Nc3cccc(Br)c3)c2cc1OC [R1═NH2, R2=3′-Br, R3═H]
- IC50 [1]: > 10 µM

Compound: CC(=O)O[C@@]12CO[C@@H]1C[C@H](O)[C@@]1(C)C(=O)[C@H](O)C3=C(C)[C@@H](OC(=O)[C@H](O)[C@@H](NC(=O)OC(C)(C)C)c4ccccc4)C[C@@](O)([C@@H](OC(=O)c4ccccc4)[C@H]21)C3(C)C [Docetaxel, docetaxel]
- IC50 [2]: 410 nM
- IC50 [3]: 7 nM
- IC50 [4]: 2 nM
- IC50 [5]: 127 nM

Compound: COc1cc2nc(C)nc(Nc3cccc(Br)c3)c2cc1OC [R1=Me, R2=3′-Br, R3═H]
- IC50 [1]: > 10 µM

Compound: Radiolabeled (4-Azido-phenyl)-(2-methyl-quinazolin-4-yl)-methyl-amine [Radiolabeled Example 102 compound]
- Binding to Topoisomerase II (crosslink on UV irradiation) [6]: binds sufficiently well to Topoisomerase II to crosslink to the enzyme when photoactivated

Compound: COc1ccc(N(C)c2nc(Cl)nc3ccccc23)cc1 [Example 1]
- IC50 [2]: 1.3 nM
- Effect on topoisomerase I-dependent relaxation of supercoiled DNA [7]: no apparent effect on topoisomerase I activity
- GI50 ([8]; SW-620, 48 h): 3 nM
- Inhibition of topoisomerase II-dependent relaxation of supercoiled DNA [9]: inhibition of DNA relaxation is substantial
- GI50 [10]: 8 nM
- EC50 ([11]; 24 h, read-out: T-47D (24 hr) EC50 (nM)): 2 nM
- EC50 ([11]; read-out: Caspase activation (EC50 nM)): 2 nM
- IC50 [3]: 1.1 nM
- GI50 ([12]; MX1, 48 h): 5 nM
- GI50 [13]: 6 nM
- IC50 [4]: 2.9 nM
- GI50 [14]: 8 nM
- IC50 [15]: < 500 nM
- IC50 [5]: 2.7 nM

Compound: COc1ccc(N(C)c2nc(Cl)nc3ccccc23)cn1 [Example 36, (2-Chloro-quinazolin-4-yl)-(6-methoxy-pyridin-3-yl)-methyl-amine]
- GI50 [8, 16]: 70 nM
- GI50 ([10]; T-47D, read-out: GI50): 111 nM
- EC50 [11, 17]: 6 nM
- EC50 [11, 18]: 6 nM
- GI50 [12, 19]: 73 nM
- GI50 ([13]; read-out: GI50): 53 nM
- GI50 ([14]; DLD, read-out: GI50): 89 nM
- IC50 [15]: < 1000 nM

Compound: CC[C@]1(O)C[C@@H]2CN(CCc3c([nH]c4ccccc34)[C@@](C(=O)OC)(c3cc4c(cc3OC)N(C)[C@H]3[C@@](O)(C(=O)OC)[C@H](OC(C)=O)[C@]5(CC)C=CCN6CC[C@]43[C@@H]65)C2)C1 [Vinblastine, vinblastine]
- IC50 [2]: 3 nM
- IC50 [3]: 2.6 nM
- IC50 [4]: 0.5 nM
- IC50 [5]: 2.8 nM

Compound: COc1ccc(Nc2nc(Cl)nc3ccccc23)cc1 [Example 7, (2-Chloro-quinazolin-4-yl)-(4-methoxy-phenyl)-amine]
- GI50 [8, 16]: > 10000 nM
- GI50 ([10]; T-47D, read-out: GI50): > 10000 nM
- EC50 [11, 17]: > 10000 nM
- EC50 ([11]; T-47D, 48 hr, read-out: T-47D (48 hr) EC50): > 10000 nM
- EC50 [11, 18]: > 10000 nM
- GI50 [12, 19]: > 10000 nM
- GI50 ([13]; read-out: GI50): > 10000 nM
- GI50 ([14]; DLD, read-out: GI50): > 10000 nM
- IC50 [15]: > 50000 nM

Compound: COc1cc([C@@H]2c3cc4c(cc3[C@@H](O[C@@H]3O[C@@H]5CO[C@@H](C)O[C@H]5[C@H](O)[C@H]3O)[C@H]3COC(=O)[C@H]23)OCO4)cc(OC)c1O [VP-16, etoposide, reference compound]
- Effect on topoisomerase I-dependent relaxation of supercoiled DNA [7]: no apparent effect on topoisomerase I activity
